Measured values taken from a melting point compilation (Tetko et al.; mined from patent text by program, amines drawn as free bases though some values may be those of a salt).

Compound | melting point [°C]
O=C(O)c1cccc(-c2nc(-c3ccccc3F)no2)c1 | 233 to 234
C=CCOc1ccc(OC(C(O)C(C)(C)C)n2cncn2)cc1 (configuration not stated) | 85
COc1cc(N)c2ncccc2c1OCc1ccc(Cl)cc1 | 122 to 123
CN1CCN(C2=Nc3ccccc3N=C(c3ccccc3)C2)CC1 | 155 to 157
CCC(=O)NC1Cc2ccccc2C(c2ccccc2)C1 (configuration not stated) | 144 to 146
O=C(O)CCN(O)CCC(=O)O | 148 to 149
CSCOC1CCC2C3CCC4=CC(=O)C=CC4(C)C3(F)C(OC(C)=O)CC12C (configuration not stated) | 142 to 143
Cc1n[nH]c2cc(-c3nn(Cc4oc5ccc(F)cc5c(=O)c4-c4ccccc4)c4ncnc(N)c34)ccc12 | 277 to 279
COc1cc(C=CC=O)ccc1OC(C)c1nc(-c2ccccc2)oc1C (configuration not stated) | 152 to 153
Cc1nc2cc(S(=O)(=O)n3c(CCCC(=O)O)cc4cc(C(F)(F)F)ccc43)ccc2s1 | 171 to 178
COc1ccc(C=CC(=O)NCCc2ccc(OC(C)(C)C(=O)O)cc2)cc1 | 158 to 159
O=c1[nH]cc(C(F)(F)F)cc1Br | 162 to 165
O=C(Nc1ccccc1)n1cc(F)c(NCc2ccccc2F)nc1=O | 154 to 157
CC(Sc1nc(N)cc(Cl)n1)c1ccc2ccccc2c1 (configuration not stated) | 55 to 58
COC(=O)c1c(Br)c(Br)c(C(=O)OC)c(Br)c1Br | 207 to 210
CCN(CC)CCSC1=C(C#N)C(c2ccccc2)(c2cccnc2)C(=O)N1 (configuration not stated) | 133
O=C(C1CCCCC1)C1CCN(C(=O)c2cc(O)c(O)cc2[N+](=O)[O-])CC1 | 240
O=C(O)C1=Nc2ccc3c(c2=C1)=CCO3 | 183 to 184
CC1(C)c2ccc(CCN3CCN(c4noc5ccccc45)CC3)cc2C(C)(C)C1NS(C)(=O)=O (configuration not stated) | 75 to 80
Cc1cc(-n2c(=O)cc(C(F)(F)F)[nH]c2=O)c(F)cc1Br | 186
CCCc1nc2c(N)ncc(Br)c2n1CCOCCNS(C)(=O)=O | 129 to 131
CC(=O)c1ccc(OCc2cccc(N)c2)cc1O | 153 to 154
Cc1cc(NC(C)(C)C)nc(Cl)c1C#N | 109
COc1ccc(C2CC(O)(c3ccc(OC4CCCCO4)cc3)C2)cc1 (configuration not stated) | 72 to 75

Compound | melting point [°C]
CN(C)CC1CCc2[nH]c3c(c2C1=O)CCC3 (configuration not stated) | 164 to 165
CCC1c2cc(OC)c(OC)cc2C(c2ccc(OC)c(OC)c2)=NNC1C (configuration not stated) | 120 to 122
O=C(C=Cc1ccc(Br)s1)Nc1nnn[nH]1 | 268
COc1cc(OC)nc(NC(=O)NS(=O)(=O)c2ccccc2S(=O)(=O)NC(=O)Nc2nc(OC)cc(OC)n2)n1 | 201 to 203
COc1cccc(CN(Cc2cccc(OC)c2)c2ccc(-c3ccccc3)cc2)c1 | 98 to 98.5
O=C(O)CN1CCC(n2nc(-c3c(-c4ccccc4)nn4ccccc34)ccc2=O)C1=O (configuration not stated) | 250 to 251
O=C(Nc1ccc(Oc2ccccc2)cc1)Nc1sccc1C(=O)O | 195 to 198
ClCc1coc(Cc2ccccc2)n1 | 31 to 32
CCOC(=O)c1sc(I)nc1C(F)(F)F | 75 to 76
O=C(O)c1ccc(Cl)cc1Cc1ccccc1 | 142 to 144
COc1cc(/C(C#N)=C\c2ccc(C)c(N)c2)cc(OC)c1OC | 161 to 162
CC(C)(C)c1ccc(O[C@@H]2CCNC[C@H]2O)cc1 (relative stereo) | 138 to 140
COC(=O)c1cccc(CC2COc3ccc(OCc4ccc5ccccc5n4)cc3C2O)c1 (configuration not stated) | 153 to 154
CCn1ncnc1COc1nn2c(-c3ccc(F)cc3)nncc2c1C(C)(C)C | 190
O=C(Nc1ccccc1Cl)N1CCc2cc(S(=O)(=O)N3CCN(c4cccc(Cl)c4)CC3)ccc21 | 205 to 206
CCCC(=O)c1ccc(OCCCCC(=O)O)c(Cl)c1Cl | 102 to 103
Cc1oc(-c2ccccc2)nc1C(O)COc1ccc(CC2SC(=N)NC2=O)cc1 (configuration not stated) | 238 to 239
CCOC(=O)C(=C(c1ccc(F)cc1)c1ccc(F)cc1)c1nnn(C(C)(C)C)n1 | 143 to 144
Fc1ccc(-c2cnc3nc(C(F)(F)F)cnn23)cc1-c1ccccn1 | 128 to 131
COc1cn(C)c(=O)c(OS(=O)(=O)C(F)(F)F)n1 | 107 to 108
CN1c2ccccc2C(=C2CCN(C(=O)OCC(Cl)(Cl)Cl)CC2)c2ccccc21 | 190 to 192
C[C@H]1N(C(=O)c2ccc(OCC(F)(F)C(F)F)cc2)CC(=O)O[C@@]1(Cn1cncn1)c1ccc(F)cc1F (relative stereo) | 78 to 83
N#CC(=NO)c1cccc(Oc2ccccc2)c1 | 124 to 125
CC(C)(Nc1ccccc1N)C(=O)O | 130 to 132

Compound | melting point [°C]
CCOC(=O)c1sc(NC(=O)c2cc(Br)ccc2O)nc1-c1ccccc1 | 197 to 199
CN(C)S(=O)(=O)c1ccc2c(c1)CNc1ccccc1O2 | 99 to 102
CCN1c2ncccc2C(=O)N(C)c2ccc(-c3c[nH]c(C(=O)O)c3)nc21 | 256 to 257
CC(C)(C)c1cc(P(c2ccccc2)c2ccccc2)cc(C(C)(C)C)c1O | 92 to 93
CNC(=O)C(NC(=O)c1cn(C)nc1C(F)(F)F)C(/C=C/c1ccccc1)c1ccccc1 (configuration not stated) | 192 to 194
O=C(O)C1(c2ccc(CN3CCN(c4ccc(F)cc4)CC3)cc2)CC1 | 74 to 77
COc1c(-c2cc3c(s2)CCC/C3=N\OCc2cccnc2)ccc2c(=O)c(C(=O)O)cn(C3CC3)c12 | 181 to 183
C=C(C)Cn1c(N)c(N)c(=O)n(C)c1=O | 152 to 153
CS(=O)(=O)c1ccc(-c2[nH]c3ccc(Cl)cc3c2-c2ccc(Cl)cc2)cc1 | 281 to 283
CC(C)C[C@H](NC(=O)OC1CCCCC1)C(=O)N[C@@H](Cc1ccccc1)C(=O)CSCc1ccco1 | 102 to 103
COc1ccc2c(c1)CCC1CCNC(=O)C(CSC)=C21 (configuration not stated) | 182 to 184
CC(C(=O)O)c1ccc2cc(OCCCCCCc3cccc(O)c3O)ccc2c1 (configuration not stated) | 136 to 139
CC(C)(C)c1ccc(S(=O)(=O)CC(=O)N=C=O)cc1 | 163
CC(C)[C@H](NC(=O)CCC(=O)c1ccccc1)C(=O)O | 118 to 120
COc1ccc2ccc(N3Cc4ccccc4C3OCC(=O)O)nc2n1 (configuration not stated) | 190
O=C(O)c1cccc(-c2ccc3c(c2)N(c2cc(Cl)cc(Cl)c2)CC3)c1 | 210 to 211
CCCn1c(COCC)nc2c(N)nc3ccc(OCC4CCCO4)cc3c21 (configuration not stated) | 178 to 179
CC(=O)c1ccc(OCCOc2ccc3ccccc3c2)c([N+](=O)[O-])c1 | 158 to 160
CNC(=S)n1nc(-c2ccc(Cl)nc2)nc1N | 208 to 211
COc1ccc2c(c1)CCC(CN1CCC(O)(c3ccccc3)CC1)C2=O (configuration not stated) | 163 to 165
CC(C)(C)C(Br)(Br)C(=O)O | 241 to 243
CC(CN1C(=O)C2(COc3cc4c(cc32)CCO4)c2ccccc21)OCc1ccc(F)cc1 (configuration not stated) | 55 to 60
C=C(C)C[C@@H]1C(=O)N(c2ccc(C#N)c(Cl)c2)[C@@H](C)[C@H]1O | 110 to 112
c1ccc(-c2nn3c(c2-c2nc4ncccc4o2)CCC3)nc1 | 182 to 184
